Assay results reported in PubChem BioAssay (NCI).
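Growth conditions: 96-well plates. Treatment: test compound, 48 hours, 5 concentrations. Analysis: linear interpolation between bracketing concentrations; unreached endpoints set to highest concentration. TGI marks complete inhibition of growth.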

How the values were obtained:
Assay in all cases: growth of human tumour cells (NCI), 48 h
[1] = test system: SF-295 CNS
[2] = test system: NCI-H460 lung
[3] = test system: RXF 393 renal
[4] = test system: LOX IMVI melanoma
[5] = test system: U251 CNS
[6] = test system: DLD-1 colon
[7] = test system: DMS 273 small cell lung
[8] = test system: IGROV1 ovarian
[9] = test system: SK-OV-3 ovarian
[10] = test system: UO-31 renal
[11] = test system: HOP-62 NSCLC
[12] = test system: SK-MEL-28 melanoma
[13] = test system: KM20L2 colon
[14] = test system: COLO 205 colon
[15] = test system: TK-10 renal
[16] = test system: M14 melanoma
[17] = test system: SNB-75 CNS
[18] = test system: HT29 colon
[19] = test system: XF 498 CNS
[20] = test system: EKVX NSCLC
[21] = test system: HCT-15 colon
[22] = test system: OVCAR-4 ovarian
[23] = test system: MOLT-4 leukemia
[24] = test system: RPMI-8226 leukemia
[25] = test system: SW-620 colon
[26] = test system: SNB-19 CNS
[27] = test system: HCC-2998 colon
[28] = test system: LXFL 529 NSCLC
[29] = test system: OVCAR-3 ovarian
[30] = test system: A549 NSCLC
[31] = test system: OVCAR-8 ovarian
[32] = test system: UACC-62 melanoma
[33] = test system: MALME-3M melanoma
[34] = test system: 786-0 renal
[35] = test system: SF-268 CNS
[36] = test system: NCI-H23 lung
[37] = test system: HOP-92 NSCLC
[38] = test system: SNB-78 CNS
[39] = test system: SN12C renal
[40] = test system: CAKI-1 renal
[41] = test system: K-562 leukemia
[42] = test system: DMS 114 small cell lung
[43] = test system: HL-60(TB) leukemia
[44] = test system: RXF-631 renal
[45] = test system: NCI-H522 lung
[46] = test system: SK-MEL-5 melanoma
[47] = test system: SF-539 CNS
[48] = test system: HCT-116 colon
[49] = test system: CCRF-CEM leukemia
[50] = test system: A498 renal
[51] = test system: ACHN renal
[52] = test system: UACC-257 melanoma
[53] = test system: SR leukemia
[54] = test system: KM12 colon
[55] = test system: HOP-18 NSCLC
[56] = test system: M19-MEL melanoma
[57] = test system: OVCAR-5 ovarian
[58] = test system: NCI-H226 lung
[59] = test system: SK-MEL-2 melanoma

Structure (SMILES): Cc1cc(C)c2c(c1)Nc1ccccc1P2c1ccccc1 (stereo not given)
- TGI [1]: 56.3 µM
- TGI [2]: 50.8 µM
- TGI [3]: > 100 µM
- TGI [4]: > 100 µM
- TGI [5]: > 100 µM
- TGI [6]: 65.7 µM
- TGI [7]: 50.7 µM
- TGI [8]: > 100 µM
- TGI [9]: > 100 µM
- TGI [10]: 57.8 µM
- TGI [11]: 66.8 µM
- TGI [12]: > 100 µM
- TGI [13]: 74.7 µM
- TGI [14]: > 100 µM
- TGI [15]: > 100 µM
- TGI [16]: > 100 µM
- TGI [17]: 78.5 µM
- TGI [18]: > 100 µM
- TGI [19]: 33.3 µM
- TGI [20]: 91.1 µM
- TGI [21]: > 100 µM
- TGI [22]: > 100 µM
- TGI [23]: > 100 µM
- TGI [24]: 26.7 µM
- TGI [25]: > 100 µM
- TGI [26]: 83.9 µM
- TGI [27]: 60 µM
- TGI [28]: > 100 µM
- TGI [29]: 61 µM
- TGI [30]: > 100 µM
- TGI [31]: > 100 µM
- TGI [32]: > 100 µM
- TGI [33]: 71.8 µM
- TGI [34]: > 100 µM
- TGI [35]: > 100 µM
- TGI [36]: 83.8 µM
- TGI [37]: 58.9 µM
- TGI [38]: > 100 µM
- TGI [39]: > 100 µM
- TGI [40]: 98.1 µM
- TGI [41]: > 100 µM
- TGI [42]: > 100 µM
- TGI [43]: 59.6 µM

Structure (SMILES): COc1ccc2cc1Oc1ccc(cc1)C[C@@H]1c3cc(c(OC)cc3CCN1C)Oc1c(OC)c(OC)cc3c1[C@@H](C2)N(C)CC3
- TGI [1]: 31.3 µM
- TGI [2]: 27.3 µM
- TGI [44]: 30 µM
- TGI [3]: 8.77 µM
- TGI [5]: 26 µM
- TGI [6]: 71.6 µM
- TGI [7]: 35.3 µM
- TGI [8]: 40.8 µM
- TGI [9]: 41.2 µM
- TGI [11]: 35.8 µM
- TGI [13]: 21.3 µM
- TGI [45]: 30 µM
- TGI [15]: 33.5 µM
- TGI [16]: 4.01 µM
- TGI [17]: 23.7 µM
- TGI [46]: 33.8 µM
- TGI [19]: 19.3 µM
- TGI [21]: 30 µM
- TGI [47]: 23 µM
- TGI [24]: 39.9 µM
- TGI [26]: 30.8 µM
- TGI [27]: 30.7 µM
- TGI [28]: 32.7 µM
- TGI [29]: 33.8 µM
- TGI [31]: 28.2 µM
- TGI [35]: 52.4 µM
- TGI [48]: 13 µM
- TGI [36]: 33.7 µM
- TGI [49]: 35 µM
- TGI [50]: 32.5 µM
- TGI [37]: 26.9 µM
- TGI [38]: 31.6 µM
- TGI [51]: 34.8 µM
- TGI [52]: 28.1 µM
- TGI [41]: 9.77 µM
- TGI [43]: 39.9 µM
- TGI [53]: 43.3 µM

Structure (SMILES): CN(C)CCNC(=O)c1ccc(C(=O)NCCN(C)C)c2nc3ccccc3cc12
- TGI [1]: 16.4 µM
- TGI [2]: 2.79 µM
- TGI [44]: 14.8 µM
- TGI [3]: 2.09 µM
- TGI [4]: 3.15 µM
- TGI [5]: 7.85 µM
- TGI [6]: 5.28 µM
- TGI [7]: 4.76 µM
- TGI [8]: > 50.2 µM
- TGI [54]: 4.14 µM
- TGI [9]: 7.5 µM
- TGI [10]: 18 µM
- TGI [11]: 4.45 µM
- TGI [12]: 3.89 µM
- TGI [13]: 10.3 µM
- TGI [45]: 1.93 µM
- TGI [14]: 2.39 µM
- TGI [15]: 5.08 µM
- TGI [16]: 3.44 µM
- TGI [17]: 3.46 µM
- TGI [46]: 4.34 µM
- TGI [18]: 6.15 µM
- TGI [20]: 6.89 µM
- TGI [21]: 16.9 µM
- TGI [22]: 3.52 µM
- TGI [23]: 1.56 µM
- TGI [47]: 2.01 µM
- TGI [25]: 9.56 µM
- TGI [55]: 25.4 µM
- TGI [26]: 11.3 µM
- TGI [56]: 2.35 µM
- TGI [27]: 2.98 µM
- TGI [28]: 12.3 µM
- TGI [29]: 9.91 µM
- TGI [30]: 13 µM
- TGI [31]: 12.7 µM
- TGI [32]: 2.38 µM
- TGI [33]: 2.97 µM
- TGI [57]: 3.78 µM
- TGI [34]: 13.8 µM
- TGI [35]: 6.79 µM
- TGI [48]: 6.08 µM
- TGI [36]: 3.8 µM
- TGI [58]: 3.6 µM
- TGI [49]: 10.2 µM
- TGI [50]: 3.93 µM
- TGI [37]: 7.99 µM
- TGI [38]: 12.7 µM
- TGI [51]: 8.58 µM
- TGI [39]: 8.96 µM
- TGI [52]: 4.47 µM
- TGI [40]: 9.09 µM
- TGI [41]: > 30 µM
- TGI [42]: 2.16 µM
- TGI [59]: 2.57 µM
- TGI [43]: 9.5 µM
- TGI [53]: 2.49 µM

Structure (SMILES): O=c1c(Sc2c(O)c3ccccc3c3ccccc3c2=O)c(O)c2ccccc2c2ccccc12
- TGI [1]: > 100 µM
- TGI [2]: > 100 µM
- TGI [44]: > 100 µM
- TGI [3]: > 100 µM
- TGI [4]: 66.5 µM
- TGI [5]: 84 µM
- TGI [6]: > 100 µM
- TGI [7]: > 100 µM
- TGI [8]: > 100 µM
- TGI [54]: > 100 µM
- TGI [9]: > 100 µM
- TGI [10]: > 100 µM
- TGI [11]: 86.4 µM
- TGI [12]: > 100 µM
- TGI [13]: > 100 µM
- TGI [45]: 47.8 µM
- TGI [14]: > 100 µM
- TGI [15]: > 100 µM
- TGI [16]: > 100 µM
- TGI [17]: > 100 µM
- TGI [46]: > 100 µM
- TGI [18]: > 100 µM
- TGI [20]: > 100 µM
- TGI [21]: > 100 µM
- TGI [22]: > 100 µM
- TGI [23]: 73.8 µM
- TGI [47]: > 100 µM
- TGI [24]: > 100 µM
- TGI [25]: > 100 µM
- TGI [55]: > 100 µM
- TGI [26]: > 100 µM
- TGI [56]: > 100 µM
- TGI [27]: > 100 µM
- TGI [28]: > 100 µM
- TGI [29]: > 100 µM
- TGI [30]: > 100 µM
- TGI [31]: > 100 µM
- TGI [32]: > 100 µM
- TGI [33]: > 100 µM
- TGI [57]: > 100 µM
- TGI [34]: > 100 µM
- TGI [35]: 99 µM
- TGI [36]: 94.7 µM
- TGI [49]: 56.6 µM
- TGI [37]: > 100 µM
- TGI [51]: 78.5 µM
- TGI [39]: > 100 µM
- TGI [52]: > 100 µM
- TGI [40]: > 100 µM
- TGI [41]: > 100 µM
- TGI [42]: 92.3 µM
- TGI [59]: 68.5 µM
- TGI [43]: 41.8 µM
